Laboratory results as given in EP2518054A1, “AMIDE COMPOUND” (Takeda Pharmaceutical Company Limited, priority 2009, dated 2011).

Target: T1, human GPR52 (Homo sapiens, UniProt Q9Y2T5)
T1 construct: expressed in transfected cells; host or cells: CHO(dhfr-) cells
Experiment: Increase of intracellular cAMP concentration in human GPR52-expressing CHO cell (AlphaScreen cAMP assay)
Format: cell-based
Settings: human GPR52-expressing CHO(dhfr-) cells; for activity at 1 µM: CHO, 1µM test compound, 100% = cAMP with 1 µM Reference Example 79, 0% = DMSO, 37°C, 30 min, read-out: GPR52 agonist activity (%); for EC50: concentration of the test compound at which it shows 50% activity, read-out: GPR52 agonist activity EC50
Method: Increase of intracellular cAMP concentration in human GPR52-expressing CHO cell
Using OptiPlate-384 (PerkinElmer Inc.), 1×10^4 human GPR52-expressing CHO(dhfr-) cells were incubated together with various concentration(10^-5µM - 10µm) of a test compound in an assay buffer (30 µL, HBSS (containing Ca^2+ and Mg^2+), 0.5% BSA, 100 µM IBMX, 100 µM Ro20-1724, 5 mM HEPES (pH 7.55)) at 37°C for 30 min. Thereafter, according to the protocol of AlphaScreen CAMP Assay Kit (PerkinElmer Inc.), the intracellular cAMP concentration was measured by EnVision (PerkinElmer Inc.). The GPR52 agonist activity was calculated, assuming the intracellular cAMP concentration in the presence of […] N-(2-hydroxyethyl)-3-[2-[3-(trifluoromethyl)benzyl]-1-benzofuran-4-yl]benzamide (Reference Example 79) to be 100% and assuming the intracellular cAMP concentration when DMSO was added instead of the test compound to be 0%.

T1 sequence (Q9Y2T5 whole entry): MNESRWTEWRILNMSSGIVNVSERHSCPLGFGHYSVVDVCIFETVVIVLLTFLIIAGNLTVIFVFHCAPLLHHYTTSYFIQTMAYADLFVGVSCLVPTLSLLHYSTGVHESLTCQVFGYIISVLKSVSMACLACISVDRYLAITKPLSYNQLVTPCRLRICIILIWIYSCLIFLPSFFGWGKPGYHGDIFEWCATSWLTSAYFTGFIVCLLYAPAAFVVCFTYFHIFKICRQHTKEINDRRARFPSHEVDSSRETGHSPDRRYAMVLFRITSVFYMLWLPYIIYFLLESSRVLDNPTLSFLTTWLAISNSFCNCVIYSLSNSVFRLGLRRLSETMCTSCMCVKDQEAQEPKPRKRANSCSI

activity at 1 µM	EC50	SMILES
70%	290 nM	Cc1nc(-c2cccc3cc(Cc4cccc(C(F)(F)F)c4)sc23)oc1C(=O)NCC(N)=O [Example 11, N-(2-amino-2-oxoethyl)-4-methyl-2-[2-[3-(trifluoromethyl)benzyl]-1-benzothiophen-7-yl]-1,3-oxazole-5-carboxamide]
107%	–	Cc1cn(-c2cccc3cc(Cc4cccc(C(F)(F)F)c4)sc23)cc1C(=O)NCC(N)=O [Example 12, N-(2-amino-2-oxoethyl)-4-methyl-1-[2-[3-(trifluoromethyl)benzyl]-1-benzothiophen-7-yl]-1H-pyrrole-3-carboxamide]
79%	–	COCCNC(=O)c1cnn(-c2cccc3cc(Cc4cccc(C(F)(F)F)c4)sc23)c1C [Example 13, N-(2-methoxyethyl)-5-methyl-1-[2-[3-(trifluoromethyl)benzyl]-1-benzothiophen-7-yl]-1H-pyrazole-4-carboxamide]
94%	–	Cc1nn(-c2cccc3cc(Cc4cccc(C(F)(F)F)c4)sc23)cc1C(=O)NCC(N)=O [Example 16, N-(2-amino-2-oxoethyl)-3-methyl-1-[2-[3-(trifluoromethyl)benzyl]-1-benzothiophen-7-yl]-1H-pyrazole-4-carboxamide]
79%	–	O=C(NCCO)c1cn(-c2cccc3cc(Cc4cccc(C(F)(F)F)c4)sc23)nc1C(F)(F)F [Example 20, N-(2-hydroxyethyl)-3-(trifluoromethyl)-1-[2-[3-(trifluoromethyl)benzyl]-1-benzothiophen-7-yl]-1H-pyrazole-4-carboxamide]
94%	–	NC(=O)CNC(=O)c1cn(-c2cccc3cc(Cc4cccc(C(F)(F)F)c4)sc23)nc1C(F)(F)F [Example 21, N-(2-amino-2-oxoethyl)-3-(trifluoromethyl)-1-[2-[3-(trifluoromethyl)benzyl]-1-benzothiophen-7-yl]-1H-pyrazole-4-carboxamide]
93%	–	NC(=O)c1cn(-c2cccc3cc(Cc4cccc(C(F)(F)F)c4)sc23)nc1C(F)(F)F [Example 22, 3-(trifluoromethyl)-1-[2-[3-(trifluoromethyl)benzyl]benzothiophen-7-yl]-1H-pyrazole-4-carboxamide]
96%	–	CC(C)c1nn(-c2cccc3cc(Cc4cccc(C(F)(F)F)c4)sc23)cc1C(=O)NCCO [Example 26, N-(2-hydroxyethyl)-3-(1-methylethyl)-1-[2-[3-(trifluoromethyl)benzyl]-1-benzothiophen-7-yl]-1H-pyrazole-4-carboxamide]
95%	–	NC(=O)CNC(=O)c1cn(-c2cccc3cc(Cc4cccc(C(F)(F)F)c4)sc23)nc1C1CC1 [Example 28, N-(2-amino-2-oxoethyl)-3-cyclopropyl-1-[2-[3-(trifluoromethyl)benzyl]-1-benzothiophen-7-yl]-1H-pyrazole-4-carboxamide]
97%	–	O=C(NCCO)c1cn(-c2cccc3cc(Cc4cccc(C(F)(F)F)c4)sc23)nc1C1CC1 [Example 29, 3-cyclopropyl-N-(2-hydroxyethyl)-1-[2-[3-(trifluoromethyl)benzyl]-1-benzothiophen-7-yl]-1H-pyrazole-4-carboxamide]
96%	–	Cc1cn(-c2cccc3cc(Cc4cccc(C(F)(F)F)c4)sc23)nc1C(=O)NCC(N)=O [Example 30, N-(2-amino-2-oxoethyl)-4-methyl-1-[2-[3-(trifluoromethyl)benzyl]-1-benzothiophen-7-yl]-1H-pyrazole-3-carboxamide]
84%	–	Cc1cc(C(=O)NCC(N)=O)n(-c2cccc3cc(Cc4cccc(C(F)(F)F)c4)sc23)n1 [Example 31, N-(2-amino-2-oxoethyl)-3-methyl-1-[2-[3-(trifluoromethyl)benzyl]-1-benzothiophen-7-yl]-1H-pyrazole-5-carboxamide]
79%	–	Cc1cc(C(=O)NCCO)n(-c2cccc3cc(Cc4cccc(C(F)(F)F)c4)sc23)n1 [Example 33, N-(2-hydroxyethyl)-3-methyl-1-[2-[3-(trifluoromethyl)benzyl]-1-benzothiophen-7-yl]-1H-pyrazole-5-carboxamide]
96%	–	Cc1nc(-c2cccc3cc(Cc4cccc(C(F)(F)F)c4)sc23)sc1C(N)=O [Example 36, 4-methyl-2-[2-[3-(trifluoromethyl)benzyl]-1-benzothiophen-7-yl]-1,3-thiazole-5-carboxamide]
97%	–	Cc1nc(-c2cccc3cc(Cc4cccc(C(F)(F)F)c4)sc23)sc1C(=O)NCC(N)=O [Example 37, N-(2-amino-2-oxoethyl)-4-methyl-2-[2-[3-(trifluoromethyl)benzyl]-1-benzothiophen-7-yl]-1,3-thiazole-5-carboxamide]
101%	–	Cc1nc(-c2cccc3cc(Cc4cccc(C(F)(F)F)c4)sc23)sc1C(=O)NCCC#N [Example 38, N-(2-cyanoethyl)-4-methyl-2-[2-[3-(trifluoromethyl)benzyl]-1-benzothiophen-7-yl]-1,3-thiazole-5-carboxamide]
93%	–	Cc1nc(-c2cccc3cc(Cc4cccc(C(F)(F)F)c4)sc23)sc1C(=O)NCCO [Example 39, N-(2-hydroxyethyl)-4-methyl-2-[2-[3-(trifluoromethyl)benzyl]-1-benzothiophen-7-yl]-1,3-thiazole-5-carboxamide]
90%	–	COCCNC(=O)c1sc(-c2cccc3cc(Cc4cccc(C(F)(F)F)c4)sc23)nc1C [Example 40, N-(2-methoxyethyl)-4-methyl-2-[2-[3-(trifluoromethyl)benzyl]-1-benzothiophen-7-yl]-1,3-thiazole-5-carboxamide]
–	49 nM	Cc1nc(-c2cccc3nn(Cc4cccc(C(F)(F)F)c4)cc23)sc1C(N)=O [Example 41, 4-methyl-2-[2-[3-(trifluoromethyl)benzyl]-2H-indazol-4-yl]-1,3-thiazole-5-carboxamide]
92%	–	Cc1nc(-c2cccc3oc(Cc4cccc(C(F)(F)F)c4)cc23)sc1C(N)=O [Example 44, 4-methyl-2-[2-[3-(trifluoromethyl)benzyl]-1-benzofuran-4-yl]-1,3-thiazole-5-carboxamide]
90%	–	Cc1nc(-c2cccc3oc(Cc4cccc(C(F)(F)F)c4)cc23)sc1C(=O)NCCO [Example 46, N-(2-hydroxyethyl)-4-methyl-2-[2-[3-(trifluoromethyl)benzyl]-1-benzofuran-4-yl]-1,3-thiazole-5-carboxamide]
93%	–	Cc1nc(-c2cccc3cc(Cc4cccc(C(F)(F)F)c4)sc23)n(C)c1C(=O)NCC(N)=O [Example 47, N-(2-amino-2-oxoethyl)-1,4-dimethyl-2-[2-[3-(trifluoromethyl)benzyl]-1-benzothiophen-7-yl]-1H-imidazole-5-carboxamide]
89%	–	Cc1nc(-c2cccc3cc(Cc4cccc(C(F)(F)F)c4)sc23)n(C)c1C(N)=O [Example 48, 1,4-dimethyl-2-[2-[3-(trifluoromethyl)benzyl]-1-benzothiophen-7-yl]-1H-imidazole-5-carboxamide]
79%	–	Cc1c(C(N)=O)nc(-c2cccc3cc(Cc4cccc(C(F)(F)F)c4)sc23)n1C [Example 50, 1,5-dimethyl-2-[2-[3-(trifluoromethyl)benzyl]-1-benzothiophen-7-yl]-1H-imidazole-4-carboxamide]
102%	–	COCCNC(=O)c1c(C)nn(-c2cccc3cc(Cc4cccc(C(F)(F)F)c4)sc23)c1C [Example 51, N-(2-methoxyethyl)-3,5-dimethyl-1-[2-[3-(trifluoromethyl)benzyl]-1-benzothiophen-7-yl]-1H-pyrazole-4-carboxamide]
107%	–	Cc1nn(-c2cccc3cc(Cc4cccc(C(F)(F)F)c4)sc23)c(C)c1C(=O)NCCO [Example 52, N-(2-hydroxyethyl)-3,5-dimethyl-1-[2-[3-(trifluoromethyl)benzyl]-1-benzothiophen-7-yl]-1H-pyrazole-4-carboxamide]
102%	–	Cc1nn(-c2cccc3cc(Cc4cccc(C(F)(F)F)c4)sc23)c(C)c1C(=O)NCC(N)=O [Example 53, N-(2-amino-2-oxoethyl)-3,5-dimethyl-1-[2-[3-(trifluoromethyl)benzyl]-1-benzothiophen-7-yl]-1H-pyrazole-4-carboxamide]
101%	–	Cc1nn(-c2cccc3cc(Cc4cccc(C(F)(F)F)c4)sc23)c(C)c1C(N)=O [Example 54, 3,5-dimethyl-1-[2-[3-(trifluoromethyl)benzyl]-1-benzothiophen-7-yl]-1H-pyrazole-4-carboxamide]
96%	–	Cc1nn(-c2cccc3cc(Cc4cc(F)cc(Cl)c4)sc23)c(C)c1C(=O)NCC(N)=O [Example 55, N-(2-amino-2-oxoethyl)-1-[2-(3-chloro-5-fluorobenzyl)-1-benzothiophen-7-yl]-3,5-dimethyl-1H-pyrazole-4-carboxamide]
105%	6.9 nM	Cc1nn(-c2cccc3cc(Cc4cc(F)cc(Cl)c4)sc23)c(C)c1C(=O)NCCO [Example 56, 1-[2-(3-chloro-5-fluorobenzyl)-1-benzothiophen-7-yl]-N-(2-hydroxyethyl)-3,5-dimethyl-1H-pyrazole-4-carboxamide]
